Reference: patent US20240368096A1 (Enanta Pharmaceuticals, Inc., priority 2022, published 2024)

Tested on: HBV
Assay: HBV infection in HepG2-NTCP cells (HBeAg AlphaLISA in supernatants)
Format: cell-based
Details: Hepatitis B virus, 192 h; HBV infection of HepG2-NTCP cells; HBeAg in supernatants at day 8 post infection; read-out: Cellular EC50
Description: HepG2-NTCP A3 cells were maintained in DMEM media supplemented with GlutaMAX™ 10% fetal bovine serum, 1% penicillin/streptomycin, and 5 μg/mL puromycin at 37° C. in a humidified atmosphere with 5% CO2 in a collagen-coated tissue culture flask.
HepG2-NTCP cells were seeded in 384 well plate containing 16,000 cells/well two days prior to the infection. On the day of infection, compounds were 3-fold serially diluted in DMSO and pre-incubated with HepG2-NTCP cells for two hours before purified HBV addition. HBV infection was carried out at 2000 GE/cell with 4% PEG, and the final concentration of DMSO is 0.5%. On day one post infection, HBV-containing media was aspirated, cells were washed once with PBS and then maintained in 2.5% DMSO containing media for the remainder of the assay.
Supernatants from infected HepG2-NTCP cells were collected at day 8 post infection, and the amount of viral antigen HBeAg was measured by HBeAg AlphaLISA detection kit (PerkinElmer) following the manufacturer's recommended protocol. Irrespective of readout, compound concentrations that reduce viral product accumulation in supernatants by […] relative to DMSO controls (EC50) are reported. EC50 ranges are as follows: A<0.1 μM; B 0.1-1 μM; C>1 μM.

Row | EC50 [nM] | SMILES
1 | < 100 | CCCC[C@@H]1CN(c2ccccc2)c2cc(Oc3ccc(Cl)cc3)c(-c3ccc(F)c(C(=O)O)c3)cc2S(=O)(=O)N1C [Example 418]
2 | < 100 | CC(C)OCCOc1cc2c(cc1-c1cc(F)c(C(=O)O)s1)S(=O)(=O)N(C)[C@H](C1CCCCC1)CN2c1ccccc1 [Example 497]
3 | > 1000 | CN1[C@H](C2CCCCC2)CN(c2ccccc2)c2cc(-n3ccccc3=O)c(-c3ccc(F)c(C(=O)O)c3)cc2S1(=O)=O [Example 530]
4 | < 100 | COc1cc(F)ccc1Oc1cc2c(cc1-c1ccc(F)c(C(=O)O)c1)S(=O)(=O)N(C)[C@H](C1CCCCC1)CN2c1ccccc1 [Example 406]
5 | < 100 | CC(C)C[C@@H]1CN(c2ccccc2)c2cc(Oc3cccc(OC(F)(F)F)c3)c(-c3ccc(F)c(C(=O)O)c3)cc2S(=O)(=O)N1C [Example 438]
6 | 100 to 1000 | CN1[C@H](C2CCCCC2)CN(c2ccccc2)c2cc(OC3CC4(CCOCC4)C3)c(-c3ccc(F)c(C(=O)O)c3)cc2S1(=O)=O [Example 383]
7 | 100 to 1000 | CC(C)C[C@@H]1CN(C2CC2)c2cc(Oc3ccccc3F)c(-c3ccc(F)c(C(=O)O)c3)cc2S(=O)(=O)N1C [Example 471]
8 | 100 to 1000 | CN1[C@H](C2CCCCC2)CNc2cc(OCC(F)(F)F)c(-c3ccc(Cl)c(C(=O)O)c3)cc2S1(=O)=O [Example 477]
9 | < 100 | CCCC[C@@H]1CN(c2ccccc2)c2cc(Oc3cccc(Cl)c3)c(-c3ccc(F)c(C(=O)O)c3)cc2S(=O)(=O)N1C [Example 423]
10 | < 100 | CC(C)C[C@@H]1CN(c2ccccc2)c2cc(Oc3ccccc3F)c(-c3ccc(Cl)c(C(=O)O)c3)cc2S(=O)(=O)N1C [Example 424]
11 | > 1000 | CN1[C@H](C2CCCCC2)CN(c2ccccc2)c2cc(OCCc3cn(C)cn3)c(-c3ccc(F)c(C(=O)O)c3)cc2S1(=O)=O [Example 392]
12 | > 1000 | CC(C)C[C@@H]1CN(c2ccccc2)c2cc(-c3cccc(NC=O)c3O)c(-c3ccc(F)c(C(=O)O)c3)cc2S(=O)(=O)N1C [Example 577]
13 | 100 to 1000 | CC(C)C[C@@H]1CN(c2ccccc2)c2cc(N(C)c3ccc(F)cc3)c(-c3ccc(Cl)c(C(=O)O)c3)cc2S(=O)(=O)N1C [Example 554]
14 | 100 to 1000 | CC(C)C[C@@H]1CN(c2ccccc2)c2cc(N(C)c3cccc(F)c3)c(-c3ccc(Cl)c(C(=O)O)c3)cc2S(=O)(=O)N1C [Example 555]
15 | < 100 | CC(C)Oc1cccc(COc2cc3c(cc2-c2cc(F)c(C(=O)O)s2)S(=O)(=O)N(C)[C@H](C2CCCCC2)CN3c2ccccc2)c1 [Example 506]
16 | < 100 | CC(C)C[C@@H]1CN(c2ccccc2)c2cc(Oc3ccccc3OC(F)(F)F)c(-c3ccc(F)c(C(=O)O)c3)cc2S(=O)(=O)N1C [Example 437]
17 | < 100 | CN1[C@H](C2CCCCC2)CN(c2ccccc2)c2cc(OCc3ccccc3)c(-c3cc(F)c(C(=O)O)s3)cc2S1(=O)=O [Example 508]
18 | 100 to 1000 | CN1[C@H](C2CCCCC2)CNc2cc(C3CCC3)c(-c3ccc(F)c(C(=O)O)c3)cc2S1(=O)=O [Example 586]

Further lines, the compound ahead of its results:

Row | SMILES | EC50 [nM]
19 | COc1cccc(N2C[C@@H](C3CCCCC3)N(C)S(=O)(=O)c3cc(-c4ccc(F)c(C(=O)O)c4)c(Cl)cc32)c1 [Example 305] | 100 to 1000
20 | CN1[C@H](CC2CC2)CN(c2ccccc2)c2cc(Cl)c(-c3cncc(C(=O)O)c3)cc2S1(=O)=O [Example 74] | > 1000
21 | CN1[C@H](C2CCCCC2)CN(c2ccccc2)c2cc(OC3CC(C)(C)C3)c(-c3ccc(F)c(C(=O)O)c3)cc2S1(=O)=O [Example 375] | < 100
22 | CN1[C@H](C2CCCCC2)CN(c2ccccc2)c2cc(Cl)c(-c3cc(NC(=O)OCC4CC4)c(C(=O)O)s3)cc2S1(=O)=O [Example 252] | < 100
23 | CN1[C@H](CC2CCC2)CN(c2ccccc2)c2cc(Cl)c(-c3ccc(Cl)c(C(=O)O)c3)cc2S1(=O)=O [Example 76] | 100 to 1000
24 | CN1[C@H](C2CCCCO2)CN(c2ccccc2)c2cc(Cl)c(-c3ccc(F)c(C(=O)O)c3)cc2S1(=O)=O (stereo partly drawn) [Example 104, 5-((3S)-7-chloro-2-methyl-1,1-dioxido-5-phenyl-3-(tetrahydro-2H-pyran-2-yl)-2,3,4,5-tetrahydrobenzo[f][1,2,5]thiadiazepin-8-yl)-2-fluorobenzoic acid] | 100 to 1000
25 | CN1[C@H](C2CCCCC2)CN(c2ccccc2)c2cc(Cl)c(-c3cc(NC(=O)OC(C)(C)C)c(C(=O)O)s3)cc2S1(=O)=O [Example 238, (R)-3-((tert-butoxycarbonyl)amino)-5-(7-chloro-3-cyclohexyl-2-methyl-1,1-dioxido-5-phenyl-2,3,4,5-tetrahydrobenzo[f][1,2,5]thiadiazepin-8-yl)thiophene-2-carboxylic acid] | 100 to 1000
26 | CN1[C@H](C2CC(F)(F)C2)CN(c2ccccc2)c2cc(Cl)c(-c3ccc(Cl)c(C(=O)O)c3)cc2S1(=O)=O [Example 32] | 100 to 1000
27 | CN1[C@H](C2CCCCC2)CN(c2ccccc2)c2cc(Cl)c(-c3ncc(C(=O)O)o3)cc2S1(=O)=O [Example 132, (R)-2-(7-chloro-3-cyclohexyl-2-methyl-1,1-dioxido-5-phenyl-2,3,4,5-tetrahydrobenzo[f][1,2,5]thiadiazepin-8-yl)oxazole-5-carboxylic acid] | 100 to 1000
28 | CCCCOc1cc2c(cc1-c1ccc(F)c(C(=O)O)c1)S(=O)(=O)N(C)[C@H](C1CCCCC1)CN2c1ccccc1 [Example 350] | < 100
29 | CC(C)[C@@H]1CN(c2ccccc2)c2cc(Cl)c(-c3cc(F)c(C(=O)O)s3)cc2S(=O)(=O)N1C [Example 120] | < 100
30 | CC(=O)NS(=O)(=O)c1cc(-c2cc3c(cc2Cl)N(c2ccccc2)C[C@@H](C2CCCCC2)N(C)S3(=O)=O)ccc1F [Example 223] | < 100
31 | CN1[C@H](C2CCCCC2)CN(c2ccccc2)c2cc(Cl)c(-c3ccc(F)c(S(N)(=O)=O)c3)cc2S1(=O)=O [Example 199] | 100 to 1000
32 | CC(C)C[C@@H]1CN(c2ccccc2)c2cc(Cl)c(-c3cccc(C4(C(=O)O)CC4)c3)cc2S(=O)(=O)N1C [Example 162] | > 1000
33 | CN1[C@H](C2CCCCC2)CN(c2ccccc2)c2cc(OCc3ccoc3)c(-c3ccc(F)c(C(=O)O)c3)cc2S1(=O)=O [Example 333] | < 100
34 | COc1cc2c(cc1-c1cccc(C(=O)O)c1)S(=O)(=O)N(C)[C@@H](Cc1ccc(Cl)cc1)CN2c1ccccc1 [Example 17] | > 1000
35 | COc1ccc(N2C[C@@H](C3CCCCC3)N(C)S(=O)(=O)c3cc(-c4ccc(F)c(C(=O)O)c4)c(Cl)cc32)cc1 [Example 306, (R)-5-(7-chloro-3-cyclohexyl-5-(4-methoxyphenyl)-2-methyl-1,1-dioxido-2,3,4,5-tetrahydrobenzo[f][1,2,5]thiadiazepin-8-yl)-2-fluorobenzoic acid] | 100 to 1000

Row | SMILES | EC50 [nM]
36 | CN1[C@H](C2CCCCC2)CN(c2ccccc2)c2cc(Cl)c(-c3ccnc(C(=O)O)c3)cc2S1(=O)=O [Example 137, (R)-4-(7-chloro-3-cyclohexyl-2-methyl-1,1-dioxido-5-phenyl-2,3,4,5-tetrahydrobenzo[f][1,2,5]thiadiazepin-8-yl)picolinic acid] | 100 to 1000
37 | CN1[C@H](C2CCCCC2)CN(c2ccc(C#N)cc2)c2cc(Cl)c(-c3ccc(F)c(C(=O)O)c3)cc2S1(=O)=O [Example 290] | 100 to 1000
38 | CO[C@H]1C[C@H](Oc2cc3c(cc2-c2ccc(F)c(C(=O)O)c2)S(=O)(=O)N(C)[C@H](C2CCCCC2)CN3c2ccccc2)C1 [Example 378] | 100 to 1000
39 | CC(C)CC1CN(c2ccccc2)c2cc(Cl)c(-c3ccc(F)c(C(=O)O)c3)cc2S(=O)(=O)N1C (stereo not drawn) [Example 34] | < 100
40 | CC(=O)NS(=O)(=O)c1cc(-c2cc3c(cc2Cl)N(c2ccccc2)C[C@@H](C2CCCCC2)N(C)S3(=O)=O)ccc1Cl [Example 224] | < 100
41 | O=C(O)c1cccc(-c2cc3c(cc2F)N(c2ccccc2)CC2CC4(CC4)CN2S3(=O)=O)c1 (stereo not drawn) [Example 5] | > 1000
42 | CN1[C@H](C2CCCC2)CN(c2ccccc2)c2cc(Cl)c(-c3ccc(Cl)c(C(=O)O)c3)cc2S1(=O)=O [Example 67] | < 100
43 | CN1[C@H](C2CCCCC2)CN(c2ccccc2)c2cc(Cl)c(-c3cc(C(=O)O)c4cc[nH]c4c3)cc2S1(=O)=O [Example 209] | 100 to 1000
44 | CC(C)CC1CN(c2ccccc2)c2cc(Cl)c(-c3cccc(C(=O)O)c3)cc2S(=O)(=O)N1C (stereo not drawn) [Example 33] | 100 to 1000
45 | O=C(O)c1cc(-c2cc3c(cc2Cl)N(c2ccccc2)C[C@@H](C2CCCCC2)NS3(=O)=O)ccc1F [Example 58] | 100 to 1000
46 | COC(C)(C)CCOC(=O)Nc1cc(-c2cc3c(cc2Cl)N(c2ccccc2)C[C@@H](C2CCCCC2)N(C)S3(=O)=O)sc1C(=O)O [Example 261] | 100 to 1000
47 | CN1[C@H](C2CCCCC2)CN(c2ccccc2)c2cc(Cl)c(-c3cc(NC(=O)OCC4(C)CC4)c(C(=O)O)s3)cc2S1(=O)=O [Example 254] | < 100
48 | CN1[C@H](C2CCCCC2)CN(c2ccccc2)c2cc(Cl)c(-c3cc(NC(=O)OCC4CC(F)(F)C4)c(C(=O)O)s3)cc2S1(=O)=O [Example 253] | < 100
49 | CN1[C@H](CC2CCC2)CN(c2ccccc2)c2cc(Cl)c(-c3ccc(F)c(C(=O)O)c3)cc2S1(=O)=O [Example 75] | 100 to 1000
50 | CSc1cc2c(cc1-c1cncc(C(=O)O)c1)S(=O)(=O)N1CC(C)(C)CC1CN2c1ccccc1 (stereo not drawn) [Example 21] | 100 to 1000
51 | CN1[C@H](C2CCCCC2)CN(c2ccccc2)c2cc(Cl)c(-c3cc(C(=O)O)c(Cl)s3)cc2S1(=O)=O [Example 123] | < 100
